Test results as given in patent US8895623B2 (priority 2011, dated 2014).
Where two headings read alike, the source gives them in different places.

How the values were obtained:
[1] = pharmacokinetics after intravenous administration in humans; assay type: in vivo; conditions: for initial plasma concentrations: after intravenous administrations of equal doses, comparison of enantiomers; for elimination halftime: in humans, intravenous administration
Method: On examination of the pharmacokinetics of the two compounds after intravenous administration, it became clear that the rate of elimination of 3-[(1S,2S)-3-(dimethylamino)-1-ethyl-2-methylpropyl]phenol was much higher than that of 3-[(1R,2R)-3-(dimethylamino)-1-ethyl-2-methylpropyl]phenol, and higher even than could be explained on clearance of the total hepatic blood flow. […] In fact, the elimination halftime of 3-[(1S,2S)-3-(dimethylamino)-1-ethyl-2-methylpropyl]phenol was ca. 0.75 h.

thrombocytes [2] = assay: conjugation in thrombocytes in presence of biogenic amine transport inhibitors
thrombocytes [3] = assay: incubation in thrombocyte-enriched plasma (sulphation by thrombocytes); assay type: in vitro ADME, human
Method: Thrombocyte (platelet-)enriched plasma can be prepared by centrifuging blood at 400 g for 10 minutes as this precipitates larger cells (erythrocytes, leukocytes).

[4] = loss of compound on incubation in heparinised whole human blood; assay type: in vitro ADME; conditions: for loss of added compound: whole human blood
Description: The remaining possibility was that the high clearance was due to a stereo-selective biochemical process occurring in blood itself. If true, then it would be expected that 3-[(1S,2S)-3-(dimethylamino)-1-ethyl-2-methylpropyl]phenol, but not 3-[(1R,2R)-3-(dimethylamino)-1-ethyl-2-methylpropyl]phenol, would be metabolised in a time-, concentration-, and temperature-dependent manner by whole human blood.
To test the hypothesis, blood was withdrawn from healthy volunteers, heparinised (final heparin concentration, 15 U/ml), and spiked with 1 μM 3-[(1S,2S)-3-(dimethylamino)-1-ethyl-2-methylpropyl]phenol or 3-[(1R,2R)-3-(dimethylamino)-1-ethyl-2-methylpropyl]phenol. It was mixed on a rotary mixer at 37° C. in closed test-tubes. The rate of loss of the added compounds was determined by taking aliquots at regular intervals, centrifuging at 5000 g for 5 minutes, and analysing the supernatant.
Supernatants were alkalinized by addition of aqueous 25% ammonia (50 μl/ml plasma), spiked with an internal standard, and extracted twice with tertiary butyl methyl ether (2 ml per ml plasma). The ether layers were combined and dried in a stream of nitrogen before being reconstituted in 150 μl chromatography buffer (see below).
All assay supernatants were analysed by reversed-phase HPLC on a Inertsil 5 ODS 2 column (250×4.6 mm). The HPLC system consisted of equipment from Dionex or Gynkotek. The auto-sampler was a GINA 50T unit (Gynkotek); the pump system was type P580A LPG (Gynkotek); the column was thermostatted at 30° C. using a SHT 585 unit (Gynkotek). Effluents were generally monitored for fluorescence emission at 300 nm after excitation at 215 nm using a RF 2000 detector (Dionex); the wavelengths for excitation and emission were chosen to be optimal for 3-[(1S,2S)-3-(dimethylamino)-1-ethyl-2-methylpropyl]phenol or 3-[(1R,2R)-3-(dimethylamino)-1-ethyl-2-methylpropyl]-phenol. Chromatograms were evaluated using Chromeleon software version 6.11 (Dionex).
Generally, the samples were eluted using an isocratic solvent mixture. Sodium pentane-sulphonate was dissolved at 1.92 g/l (10 mM)=PSS; perchloric acid (PA) was 60% w/v. A mixture containing 900 ml PSS, 210 ml methanol, 80 ml tetrahydrofuran, and 0.1 ml PA was made, allowed to stand overnight, and degassed prior to passage over the column. The effluent was passed first through the UV detector, and then into the fluorescence detector.

stability to plasma = assay type: in vitro ADME
Description: Blood consists of plasma, plasma enzymes, and various blood cell types (erythrocytes, leukocytes, thrombocytes etc). 3-[(1S,2S)-3-(dimethylamino)-1-ethyl-2-methylpropyl]phenol was expected, and proven, to be stable to plasma. Of the blood cell types, thrombocytes (platelets) were expected to have the highest relevant enzymatic activity in SULT1A3, a sulphotransferase.

[5] = rate of microsomal oxidation in vitro; assay type: in vitro ADME; conditions: hepatic microsomes
Description: The probability of different routes of metabolic clearance in vivo can be investigated by estimating the rates of the underlying oxidation or conjugation reactions in vitro using sub-cellular fractions such as hepatic microsomes. Because the rate of microsomal oxidation of 3-[(1S,2S)-3-(dimethylamino)-1-ethyl-2-methylpropyl]phenol could be shown to be very low, it was considered that oxidative metabolism was unlikely to be a significant metabolic clearance route for this molecule.

male Sprague Dawley rats = assay: low intensity tail-flick test after intrathecal administration; assay type: in vivo, rat; conditions: intrathecal (i.t.) 3.15 μg/animal, 20 min p. appl., mean±s.e.m., n=10
Method: Antinociceptive effects of 3-[(1S,2S)-3-(dimethylamino)-1-ethyl-2-methylpropyl]-phenol were evaluated in the low intensity tail-flick test after local drug application into the spinal cord of rats.
160 male Sprague Dawley rats (200 to 260 g body weight) from a commercial breeder (Janvier, Le Genest St Isle, France) were housed under standardized conditions: light/dark rhythm (06.00-18.00 h light, 18.00-06.00 h dark); room temperature 20-24° C.; relative air humidity 35-70%; 15 air changes per hour, air movement <0.2 m/sec. The animals were given water and feedstuff designed for rats/mice/hamsters from Nohrlin (Bad Salzuflen, FRG) ad libitum. They were kept in groups of six in Makrolon cages type 4. There were at least 5 days between the day of delivery and the day of testing.
The experiments were performed using a Tail-flick device from Rhema-Labortechnik (Hofheim/Ts., FRG). Before and after drug application, a radiant heat beam was focused onto the dorsal surface of the rat's tail about 2 to 4 cm apart from the root. […] The latency from switching on the lamp to tail withdrawal was measured. […]
The individual latencies were calculated as the percentage of the Maximum Possible Effect (% MPE) according to the following formula: % MPE=(latency−VTM)/(30sec−VTM)*100% VTM: mean pre-test value, 30 sec: cut off value.
Data were expressed as mean±s.e.m. of the respective animal group.

[6] = oral bioavailability in humans; assay type: in vivo
Description: The principal route of metabolic clearance of 3-[(1R,2R)-3-(dimethylamino)-1-ethyl-2-methylpropyl]phenol in most species, including humans, is glucuronidation, and this route was therefore considered to be very likely to be dominant for 3-[(1S,2S)-3-(dimethylamino)-1-ethyl-2-methylpropyl]phenol as well.

[7] = in humans, known value; cited from earlier work

CC[C@H](c1cccc(O)c1)[C@H](C)CN(C)C [3-[(1S,2S)-3-(dimethylamino)-1-ethyl-2-methylpropyl]phenol]
initial plasma concentrations [1]: essentially identical
clearance relative to hepatic blood flow ([1]; humans, explains short elimination halftime): 5 fold the hepatic blood flow
elimination halftime [1]: ca. 0.75 h
rate of conjugation in presence of transport inhibitors (thrombocytes [2]; cocaine 10 μM, nomifensin 10 μM, amphetamine 100 μM, fluoxetine 10 μM, desipramine 100 μM): influenced neither
Km (thrombocytes [3]; estimated from concentration dependency of the reaction rate, read-out: Km of the process): 3.5 µM
loss on incubation in thrombocyte-enriched plasma (thrombocytes [3]; thrombocyte-enriched plasma from a given volume of blood, compared with whole blood): equivalent to that observed on incubation in the original volume of whole blood
concentration above which clearance process is saturable ([4]; whole blood, net losses sub-linear): above 2 μM
loss of added compound ([4]; 1 μM, 37° C., over one hour): 35%
loss of added compound ([4]; 6° C.): no loss
loss of added compound ([4]; room temperature (24° C.)): 7%
stability to plasma (stability to plasma): stable
rate of microsomal oxidation [5]: very low
maximum antinociceptive effect (male Sprague Dawley rats): 59.71±2.94 % MPE
oral bioavailability [6]: effectively zero
oral bioavailability or intravenous bioavailability [6]: no relevant oral bioavailability or intravenous bioavailability

CC[C@H](c1cccc(OS(=O)(=O)O)c1)[C@H](C)CN(C)C [3-[(1S,2S)-3-(dimethylamino)-1-ethyl-2-methylpropyl]phenol-sulphate]
accumulation in pelleted thrombocytes (thrombocytes [2]; under any condition): no accumulation

CC[C@H](c1ccc[14c](O)c1)[C@H](C)CN(C)C [14C-3-[(1S,2S)-3-(dimethylamino)-1-ethyl-2-methylpropyl]phenol]
reaction products after incubation (thrombocytes [3]; whole blood or thrombocyte-enriched plasma, eluted identically to synthetic sulphate on HPLC): only a single reaction product

CC[C@@H](c1cccc(O)c1)[C@@H](C)CN(C)C [(-)-(1R,2R)-3-(3-dimethylamino-1-ethyl-2-methyl-propyl)-phenol, reference compound]
initial plasma concentrations [1]: essentially identical
elimination halftime [1]: ca. 3.2 h
oral bioavailability [7]: ca. 33%
loss of added compound ([4]; 1 μM, 37° C., over one hour): No loss
rate of microsomal oxidation [5]: similarly low
